Measured values reported in US7541020B2, “Aminoalkyl glucosaminide phosphate compounds and their use as adjuvants and immunoeffectors” (priority 1997, dated 2009).
Values joined by “and” are separate entries in the source; they are usually repeats but may differ in a detail not shown here. Identical values can stand only once. Like-named read-outs stand apart in the source and are kept apart here.

How the values were obtained:
[1] = test system: influenza A/HK/68; assay type: in vivo, BALB/c mice; details: mouse, in vivo
[2] = test system: hepatitis B surface antigen (HBsAg); assay: Cytotoxic T-lymphocyte response to HBsAg with AGP in stable emulsion (AGP-SE); details: s.c. 2.0 μg HBsAg + 25 μg AGP/SE
[3] = test system: E.G7 (OVA) cells; details: s.c. 25 μg OVA in AGP preparation, spleen cells 21 days later
[4] = test system: hepatitis B surface antigen (HBsAg); details: for % Cytotoxicity (d16, post 2°): HBsAg + 10 μg AGP-AF intranasally; for % Cytotoxicity (d8, post 3°): intranasal HBsAg + 10 μg AGP-AF
[5] = test system: hepatitis B surface antigen (HBsAg); assay: Serum anti-HBsAg antibody titers after intranasal HBsAg + AGP-AF (ELISA); assay type: in vivo, BALB/c mice; details: for Anti HBsAg Titer^−1 IgG1 / Anti HBsAg Titer^−1 IgG2a: K = 10^3
[6] = Fever response in rabbits (pyrogenicity); assay type: in vivo; details: for PYROGENICITY Total Rise ° C., 3 rabbits: 10 ug/kg, cumulative rise ≥1.5 degree in three rabbits is considered pyrogenic
Method: The AGP compounds were also evaluated for their tendency to induce a fever response in rabbits. Each compound was formulated in 10% (v/v) ethanol/water solution at 100 mg/ml, then diluted with D5W to the desired concentration. The material was injected at 3 ml/kg body weight into 3 rabbits. The rise in core temperature of the rabbits was recorded.

[7] = test system: influenza A/HK/68; set-up: species or system ICR mice; details: mouse, in vivo
[8] = test system: hepatitis B surface antigen (HBsAg); assay: Anti-HBsAg antibody titer with AGP-SE (ELISA plates coated with HBsAg or p72 peptide); details: sera day 28 post 2°, 25 μg AGP-SE
[9] = test system: influenza A/HK/68; set-up: species or system ICR mice; details: mouse, in vivo; remark: listed apart in the source
[10] = test system: influenza A/HK/68; assay type: in vivo, ICR mice; details: mouse, in vivo
[11] = test system: hepatitis B surface antigen (HBsAg); assay: Vaginal wash anti-HBsAg antibody after intranasal HBsAg + AGP-AF; assay type: in vivo, BALB/c mice; details: 10 days after the booster immunization; intranasal HBsAg + 10 μg AGP-AF
Source text: Vaginal samples were collected 10 days after the booster immunization and assayed for anti-HBsAg antibody.

[12] = test system: influenza A/HK/68; assay: Second intranasal influenza vaccine experiment with aqueous AGP and MPL formulations: vaginal, tracheal wash and serum titers, protection; assay type: in vivo, BABL/c mice; details: mouse, in vivo
[13] = test system: IL-1β; assay: Cytokine induction in human whole blood ex vivo culture: IL-1β (ELISA); assay type: cell-based; details: 4 hr, Table 17
Procedure, shortened: (§1)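 Compounds in 10% EtOH-water added at 1:10 to human whole blood, 4 hr at 37° C with rotation; RPMI-treated controls. After PBS dilution and centrifugation, supernatant TNF-α and IL-1β measured by ELISA.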

[14] = test system: tetanus toxoid; set-up: species or system BFD1 (C57B1/6X DBA/2) female mice; details: mouse, in vivo
[15] = test system: TNF-α; assay: Cytokine induction in human whole blood ex vivo culture: TNF-α (ELISA); assay type: cell-based; details: 4 hr, Table 17
Procedure, shortened: as §1

[16] = test system: tetanus toxoid; details: mouse, in vivo, sc
[17] = test system: tetanus toxoid; details: mouse, in vivo
[18] = test system: ovalbumin; assay: Stimulation of antiovalbumin antibody production; assay type: in vivo, BDF1 female mice; details: 50 μg AGP + 50 μg ovalbumin; second immunization day 21; bled 14 days after second injection
Method: BDF1 female mice (8 per group) were immunized with 0.2 ml of emulsions containing 50 μg of the AGPs +50 μg of ovalbumin. A second immunization was administered 21 days post primary. Each mouse was bled 14 days after the second injection.

[19] = day 22 post 2°, HBsAg + 10 μg AGP-AF intranasally
[20] = serum, day 21 post 3°, intranasal HBsAg + 10 μg AGP-AF
[21] = ELISA plates coated with p72 peptide

With “3-Hydroxy-(S)-2-[(R)-3-dodecanoyloxytetradecanoylamino]propyl 2-Deoxy-4-O-phosphono-2-[(R)-3-dodecanoyloxytetradecanoylamino]-3-O-[(R)-3-dodecanoyloxytetradecanoyl]-β-D-glucopyranoside Triethylammonium Salt [B3]” the “Anti-influenza Titer^−1 IgG1” value [1] was 3200, the “Anti-influenza Titer^−1 IgG2b” value [1] was 800 and the “Anti-influenza Titer^−1 Total IgG” value [1] was 3200. For the same substance, the “Percent Survival” value [1] was 87.5%, the “% Cytotoxicity” value ([2]; d16, post 2°, E:T 6.25:1) was 22% and the “% Cytotoxicity” value ([2]; d16, post 2°, E:T 12.5:1) was 32%. The “% Cytotoxicity” value ([2]; d16, post 2°, E:T 25:1) was 47%, the “% Cytotoxicity” value ([2]; d16, post 2°, E:T 50:1) was 81% and the “% Cytotoxicity” value ([2]; d17, post 1°, E:T 6.25:1) was 5%. For the same substance, the “% Cytotoxicity” value ([2]; d17, post 1°, E:T 12.5:1) was 9%, the “% Cytotoxicity” value ([2]; d17, post 1°, E:T 25:1) was 15% and the “% Cytotoxicity” value ([2]; d17, post 1°, E:T 50:1) was 28%. For the same substance, the “% Cytotoxicity” value ([3]; E:T 12.5:1) was 42%, the “% Cytotoxicity” value ([3]; E:T 25:1) was 54% and the “% Cytotoxicity” value ([3]; E:T 50:1) was 65%. The “% Cytotoxicity (d16, post 2°)” value ([4]; E/T 6.25:1) was 11%, the “% Cytotoxicity (d8, post 3°)” value ([4]; E/T 6.25:1) was 20% and the “% Cytotoxicity (d16, post 2°)” value ([4]; E/T 12.5:1) was 17%. The “% Cytotoxicity (d8, post 3°)” value ([4]; E/T 12.5:1) was 32%, the “% Cytotoxicity (d16, post 2°)” value ([4]; E/T 25:1) was 26% and the “% Cytotoxicity (d8, post 3°)” value ([4]; E/T 25:1) was 45%. The “% Cytotoxicity (d16, post 2°)” value ([4]; E/T 50:1) was 43%, the “% Cytotoxicity (d8, post 3°)” value ([4]; E/T 50:1) was 54% and the “Anti HBsAg Titer^−1 IgA” value [5, 19] was 6,400. The “Anti HBsAg Titer^−1 IgG1” value [5, 19] was 1000K, the “Anti HBsAg Titer^−1 IgG2a” value [5, 19] was 500K and the “Anti HBsAg Titer^−1 IgG1” value [5, 20] was 1000K. The “Anti HBsAg Titer^−1 IgG2a” value [5, 20] was 1000K, the “Anti HBsAg Titer^−1 IgA” value [5, 20] was 25,600 and the “PYROGENICITY Total Rise ° C., 3 rabbits” value [6] was 4.2 °C. The “IgG Titer-1 post 1°” value [7] was 3200, the “IgG Titer-1 post 2°” value [7] was 102,400 and the “Percent Survival post 1°” value [7] was 70%. For the same substance, the “Percent Survival post 2°” value [7] was 60%, the “Anti-HBsAg Titer^−1 HBsAg IgG1” value ([8]; ELISA plates coated with HBsAg) was 512K and the “Anti-HBsAg Titer^−1 HBsAg IgG2a” value ([8]; ELISA plates coated with HBsAg) was 1024K. For the same substance, the “Anti-HBsAg Titer^−1 p72-Peptide IgG1” value [8, 21] was 16K, the “Anti-HBsAg Titer^−1 p72-Peptide IgG2a” value [8, 21] was 128K and the “Percent Survival” value [9] was 33%. The “Percent Survival” value [10] was 0%, the “Titer−1 IgG2a” value [10] was 50 and the “Titer−1 IgG2b” value [10] was 800. For the same substance, the “Vaginal Wash Anti-HBsAg Titer^−1 IgA” value [11] was 1600 and the “Vaginal Wash Anti-HBsAg Titer^−1 IgG” value [11] was 800.
With “N-[(R)-3-Decanoyloxytetradecanoyl]-O-[2-deoxy-4-O-phosphono-2-[(R)-3-decanoyloxytetradecanoylamino]-3-O-[(R)-3-decanoyloxytetradecanoyl]-β-D-glucopyranosyl]-L-serine Triethylammonium Salt [B15]” the “Mucosal IgA Response TW” value [12] was 11.1, the “Mucosal IgA Response VW” value [12] was 10.9 and the “Percent Protection” value [12] was 100%. The “Serum IgG Titers” value [12] was 19.1, the “mucosal adjuvant activity (in words)” value [12] was “act as mucosal adjuvants causing the production of IgA at two mucosal sites” and the “Anti-influenza Titer^−1 IgG1” value [1] was 3200. For the same substance, the “Anti-influenza Titer^−1 IgG2a” value [1] was 3200, the “Anti-influenza Titer^−1 IgG2b” value [1] was 400 and the “Anti-influenza Titer^−1 Total IgG” value [1] was 1600. The “Percent Survival” value [1] was 100%, the IL-1β ([13]; Dosage 100 ng/ml) was 51.6 pg/mL and the IL-1β ([13]; Dosage 500 ng/ml) was 104 pg/mL. For the same substance, the IL-1β ([13]; Dosage 1000 ng/ml) was 94.4 pg/mL, the IL-1β ([13]; Dosage 5000 ng/ml) was 126 pg/mL and the IL-1β ([13]; Dosage 10,000 ng/ml) was 153 pg/mL. For the same substance, the “% Cytotoxicity” value ([3]; E:T 12.5:1) was 30%, the “% Cytotoxicity” value ([3]; E:T 25:1) was 49% and the “% Cytotoxicity” value ([3]; E:T 50:1) was 58%. The “% Cytotoxicity (d16, post 2°)” value ([4]; E/T 6.25:1) was 4%, the “% Cytotoxicity (d8, post 3°)” value ([4]; E/T 6.25:1) was 16% and the “% Cytotoxicity (d16, post 2°)” value ([4]; E/T 12.5:1) was 4%. The “% Cytotoxicity (d8, post 3°)” value ([4]; E/T 12.5:1) was 25%, the “% Cytotoxicity (d16, post 2°)” value ([4]; E/T 25:1) was 5% and the “% Cytotoxicity (d8, post 3°)” value ([4]; E/T 25:1) was 42%. The “% Cytotoxicity (d16, post 2°)” value ([4]; E/T 50:1) was 13%, the “% Cytotoxicity (d8, post 3°)” value ([4]; E/T 50:1) was 56% and the “Anti HBsAg Titer^−1 IgA” value [5, 19] was 6,400. The “Anti HBsAg Titer^−1 IgG1” value [5, 19] was 256K, the “Anti HBsAg Titer^−1 IgG2a” value [5, 19] was 500K and the “Anti HBsAg Titer^−1 IgG1” value [5, 20] was 2000K. For the same substance, the “Anti HBsAg Titer^−1 IgG2a” value [5, 20] was 2000K, the “Anti HBsAg Titer^−1 IgA” value [5, 20] was 25,600 and the “PYROGENICITY Total Rise ° C., 3 rabbits” value [6] was 3.1 °C. The “PY[…]” value ([6]; rabbits) was under 0.06 µg/kg, the “IgG1 T/C Ratio” value [14] was 4.1 and 4.5 and 5.5 and the “IgM T/C” value [14] was 3.14 and 2.29 and 2.86 and 1.71 and 1.57. The “Total Ig T/C” value [14] was 233.88 and 181.91 and 170.10 and 248.06 and 166.56, the “Total Ig T/C Ratio” value [14] was 3.3 and 5.8 and 5.3 and the “Anti-influenza Titer^−1 Total IgG” value [9] was 6400. The “Percent Survival” value [9] was 50%, the TNF-α ([15]; Dosage 100 ng/ml) was 133 pg/mL and the TNF-α ([15]; Dosage 500 ng/ml) was 183 pg/mL. The TNF-α ([15]; Dosage 1000 ng/ml) was 209 pg/mL, the TNF-α ([15]; Dosage 5000 ng/ml) was 280 pg/mL and the TNF-α ([15]; Dosage 10,000 ng/ml) was 320 pg/mL. The “Anti-tetanus toxoid IgM T/C” value [16] was 4.0 and 2.7, the “Anti-tetanus toxoid Total Ig T/C” value [16] was 144.5 and the “Anti-tetanus toxoid Total Ig Titer” value [16] was 34,400. The “Anti-tetanus toxoid Total IgG T/C” value [16] was 18.85, the “Anti-tetanus toxoid Total IgG Titer” value [16] was 121,600 and the “Anti-Tetanus Toxoid Titer^−1 Fecal Extract IgG” value [17] was 50 and 100. The “Anti-Tetanus Toxoid Titer^−1 Vaginal Wash IgA” value [17] was 6400, the “Anti-Tetanus Toxoid Titer^−1 Vaginal Wash IgG” value [17] was 400 and 800 and the “Percent Survival” value [10] was 70%. The “Titer^−1 IgG1” value [10] was 200, the “Titer^−1 IgG2a” value [10] was 3200 and the “Titer^−1 IgG2b” value [10] was 6400. For the same substance, the “Titer^−1 Total IgG” value [10] was 3200, the “Vaginal Wash Anti-HBsAg Titer^−1 IgA” value [11] was 3200 and the “Vaginal Wash Anti-HBsAg Titer^−1 IgG” value [11] was 50. The “Anti-ovalbumin IgG1 T/C” value [18] was 0.6, the “Anti-ovalbumin IgG1 Titer” value [18] was 950 and the “Anti-ovalbumin IgG2a T/C” value [18] was 0.3. For the same substance, the “Anti-ovalbumin IgG2a Titer” value [18] was 113, the “Anti-ovalbumin IgG2b T/C” value [18] was 16.7 and the “Anti-ovalbumin IgG2b Titer” value [18] was 3963. For the same substance, the “Anti-ovalbumin IgM T/C” value [18] was 2.3, the “Anti-ovalbumin IgM Titer” value [18] was 438 and the “Anti-ovalbumin Total Ig T/C” value [18] was 4.1. The “Anti-ovalbumin Total Ig Titer” value [18] was 925.
